Results: publication PMC10388311, “Innovative Strategy toward Mutant CFTR Rescue in Cystic Fibrosis: Design and Synthesis of Thiadiazole Inhibitors of the E3 Ligase RNF5” (Journal of Medicinal Chemistry, 2023)
Values after ≈ are worked out from the molar mass of the structure shown. Like-named read-outs stand apart in the source and are kept apart here.

Experiments:
[1] = Solubility and aggregation in PBS buffer by NMR (SPAM filter, 1H 1D and WaterLOGSY); type: physicochemical; conditions: for solubility and aggregation in PBS (in words): NMR; for solubility at 20 µM / solubility at 50 µM / solubility at 100 µM / aggregation in PBS buffer by NMR / solubility: PBS pH 7.5, 1 μM ZnCl2, 1 mM DTT, 10% D2O, 1% DMSO-d6; for solubility at 100 µM: theoretical concentration 100 μM; for aggregation in PBS buffer by NMR: WaterLOGSY
Source text: Under these circumstances, it was decided to explore the solubility of all the synthetized compounds, regardless of their biological activities, to find a suitable candidate for the validation of our working hypothesis, i.e., that the compounds exert their activities by directly binding to RNF5. For that, we first calculated the predicted octanol/water partition coefficient (log Po/w) and the predicted aqueous solubility (log S) of all the analogues by QikProp (Schrödinger Release 2022-1: QikProp, Schrödinger, LLC, New York, NY, 2021, Table S1). […] To shrink down the number of compounds for solubility experiments, just the ones that had −2.0 < log Po/w < 6 and −6.5 < log S <0.5 values were selected. Among them, the PBS solubility was determined for five representative analogues: (i) 12 and 29 bearing different substituents on the benzyl group A; (ii) 34 and 40 showing the replacement of rings B and C with pyridine-4-yl moieties; (iii) 42 in which the N-phenylbenzamidine portion was replaced with a pyridine-2-yl moiety (Table 1).
All the NMR experiments were recorded at 298 K using a 5 mm CryoProbe QCI ^1H/^19F–^13C/^15N–D quadruple resonance, a shielded z-gradient coil, and an automatic sample changer SampleJet NMR system with temperature control. The solubility of the compounds were evaluated by ^1H 1D experiments and aggregation by WaterLOGSY, testing the compounds in buffer PBS pH 7,5, 1 μM ZnCl2, 1 mM DTT, 10% D2O (for the lock signal), and 1% DMSO-d6 at the theoretical concentrations of 20, 50, and 100 μM in the presence of 200 μM 4-trifluoromethyl benzoic acid (internal reference). For all samples, a 1D ^1H NMR experiment was recorded, the water suppression was obtained using the standard NOESY (nuclear Overhauser effect spectroscopy) preset Bruker pulse sequence, with 64k data points, a spectral width (sw) of 30 ppm, 64 scans, acquisition time (aq) of 1.835 s, a relaxation delay (d1) of 4 s, and a mixing time of 10 ms. […] The data were multiplied by an exponential window function with 1 Hz line broadening prior to Fourier transformation. For NMR binding experiments, the compounds were tested at 50 μM in buffer PBS pH 7.5, 1 μM ZnCl2, 1 mM DTT, 10% D2O (for the lock signal), and 1% DMSO-d6 in the absence and in the presence of 3 μM RNF5. WaterLOGSY experiments were recorded with the same parameters used in solubility assays, but with a higher number of scans (512); STD experiments were recorded with 128 scans, with two on (0.7 and 1 ppm) and one off (−50 ppm) resonance spectra, a Gaussian-shaped train pulse of 50 ms each was employed, with a total saturation time of the protein envelope of 5, 3, 2, 1.5, 1, or 0.5 s. A T1ρ filter of 2 ms was employed in STD experiments to eliminate the background signals from the protein. The STD spectrum was obtained by subtraction of the on-resonance spectrum from the off-resonance spectrum. Subtraction was performed by phase cycling to minimize artifacts arising from magnet and temperature instabilities.

[2] = biological target: T1, recombinant RNF5 (1–117) protein (Homo sapiens, UniProt Q99942); assay: WaterLOGSY and STD NMR binding experiments; conditions: compound 50 μM, 3 μM RNF5 (1–117)
T1 construct: human RNF5 protein (aa 1–117) truncated to exclude the transmembrane domains; GST (followed by TEV protease site) (N, cleaved yes); host or cells: Escherichia coli BL21(DE3)
Source text: The bindings of compounds 12, 40, and 42 were initially evaluated by MicroScale Thermophoresis (MST) using a purified recombinant truncated form of RNF5 (aa 1–117), lacking the C-terminal transmembrane domains. The protein was covalently labeled with a red dye (NHS) on the primary amines (lysine residues). […] NMR experiments on the recombinant RNF5 form were further performed to test the direct binding of the three compounds to the protein with a more sensitive, label-free, independent approach. Analogs 12, 40, and 42 were tested at 50 μM in the absence and in the presence of 3 μM RNF5 (1–117) protein. […] Indeed, for all three compounds, the NMR signals of their methyls are present in the STD spectra, and in the WaterLOGSY spectra, their signals change from negative to positive in the presence of the protein, indisputably highlighting the formation of compound–protein binding events. […] It has to be noted that NMR is a very sensitive technique that allows detecting also compounds weakly binding to their target protein independent of the possible downstream biological effects. […]
All the NMR experiments were recorded at 298 K using a 5 mm CryoProbe QCI ^1H/^19F–^13C/^15N–D quadruple resonance, a shielded z-gradient coil, and an automatic sample changer SampleJet NMR system with temperature control. […] For all samples, a 1D ^1H NMR experiment was recorded, the water suppression was obtained using the standard NOESY (nuclear Overhauser effect spectroscopy) preset Bruker pulse sequence, with 64k data points, a spectral width (sw) of 30 ppm, 64 scans, acquisition time (aq) of 1.835 s, a relaxation delay (d1) of 4 s, and a mixing time of 10 ms. […] WaterLOGSY experiments were recorded with the same parameters used in solubility assays, but with a higher number of scans (512); STD experiments were recorded with 128 scans, with two on (0.7 and 1 ppm) and one off (−50 ppm) resonance spectra, a Gaussian-shaped train pulse of 50 ms each was employed, with a total saturation time of the protein envelope of 5, 3, 2, 1.5, 1, or 0.5 s. […]

[3] = PBS buffer, aqueous buffer, kinetic from dmso stock, theoretical concentration 20 μM
[4] = PBS buffer, aqueous buffer, kinetic from dmso stock, theoretical concentration 50 μM
[5] = PBS buffer, aqueous buffer, kinetic from dmso stock
[6] = PBS buffer, aqueous buffer, kinetic from dmso stock, theoretical concentration 20 μM, read-out: solubility in PBS buffer by NMR, 20 μM
[7] = theoretical concentration 50 μM

T1 sequence (Q99942 1-117): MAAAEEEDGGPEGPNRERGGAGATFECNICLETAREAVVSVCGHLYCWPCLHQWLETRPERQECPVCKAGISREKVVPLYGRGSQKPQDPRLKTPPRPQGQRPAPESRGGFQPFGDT

| Structure (SMILES) | solubility at 20 µM [1, 3] [µM] | solubility at 50 µM [1, 4] [µM] | solubility at 100 µM [1, 5] [µM] | aggregation in PBS buffer by NMR [1] | binding to RNF5 by WaterLOGSY and STD NMR [2] | solubility [1, 6] [µM] | solubility at 50 µM [1, 7] [µM] | solubility at 100 µM [1] [µM] | solubility ([1]; PBS buffer, aqueous buffer, kinetic from dmso stock, theoretical concentration 50 μM, read-out: solubility in PBS buffer by NMR, 50 μM) [µM] | solubility and aggregation in PBS (in words) ([1]; PBS buffer) |
| --- | --- | --- | --- | --- | --- | --- | --- | --- | --- | --- |
| Cc1ns/c(=N\C(=N\c2ccccc2)c2ccccc2)n1Cc1ccc(C(=O)O)cc1 [Compound 12, 4-(((Z)-3-Methyl-5-(((E)-phenyl(phenylimino)methyl)imino)-1,2,4-thiadiazol-4(5H)-yl)methyl)benzoic Acid] | 20 (≈ 8.57 µg/mL) | 50 (≈ 21.4 µg/mL) | 100 (≈ 42.9 µg/mL) | no | bind the recombinant RNF5 protein |  |  |  |  | no aggregation and solubility suitable for in vitro/biophysical binding experiments |
| COc1cccc(Cn2c(C)ns/c2=N\C(=N\c2ccccc2)c2ccccc2)c1 [Compound 16, (E)-N-((Z)-4-(3-Methoxybenzyl)-3-methyl-1,2,4-thiadiazol-5(4H)-ylidene)-N′-phenylbenzimidamide] |  |  |  | no |  | < 5 | <5 | <5 |  |  |

Continued, in another order:

| solubility at 20 µM [1, 3] [µM] | solubility at 50 µM [1, 4] [µM] | solubility at 100 µM [1, 5] [µM] | aggregation in PBS buffer by NMR [1] | binding to RNF5 by WaterLOGSY and STD NMR [2] | solubility [1, 6] [µM] | solubility at 50 µM [1, 7] [µM] | solubility at 100 µM [1] [µM] | solubility ([1]; PBS buffer, aqueous buffer, kinetic from dmso stock, theoretical concentration 50 μM, read-out: solubility in PBS buffer by NMR, 50 μM) [µM] | Structure (SMILES) | solubility and aggregation in PBS (in words) ([1]; PBS buffer) |
| --- | --- | --- | --- | --- | --- | --- | --- | --- | --- | --- |
|  |  |  | no |  | < 5 | <5 | <5 |  | Cc1ns/c(=N\C(=N\c2ccccc2)c2ccccc2)n1Cc1ccccc1 [inh-2, reference compound] |  |
| 20 (≈ 5.65 µg/mL) | 40 (≈ 11.3 µg/mL) | 5 (≈ 1.41 µg/mL) | no | bind the recombinant RNF5 protein |  |  |  |  | Cc1ns/c(=N\c2ccccn2)n1Cc1ccccc1 [Compound 42, (Z)-4-Benzyl-3-methyl-N-(pyridin-2-yl)-1,2,4-thiadiazol-5(4H)-imine] | no aggregation and solubility suitable for in vitro/biophysical binding experiments |
| 20 (≈ 7.71 µg/mL) |  |  | no | bind the recombinant RNF5 protein |  |  |  | 30 (≈ 11.6 µg/mL) | Cc1ns/c(=N\C(=N\c2ccncc2)c2ccccc2)n1Cc1ccccc1 [Compound 40, (E)-N-((Z)-4-Benzyl-3-methyl-1,2,4-thiadiazol-5(4H)-ylidene)-N′-(pyridin-4-yl)benzimidamide] | no aggregation and solubility suitable for in vitro/biophysical binding experiments |
